The values below come from patent US9181305B2, “Exendin-4 peptide analogues” (SANOFI, priority 2012, dated 2015).

Usually solubility stands for the dissolved amount per volume that the medium holds. The EC50 is the concentration that produces a half-maximal response. A higher EC50 goes with weaker potency.

One data set in a line: physchem. In kind it is physicochemical. The method, then: Prior to the testing of solubility and stability of a peptide batch, its content was determined. Therefore, two parameters were investigated, its purity (HPLC-UV) and the amount of salt load of the batch (ion chromatography). Since synthesized peptides contain primarily trifluoracetate anions, only anion chromatography was performed. The content was then calculated based on the assumption that peptide-related impurities are detected at the same UV-absorption rate as the target peptide, as well as that cations are not present in the sample.
Therefore, solutions from solid samples were prepared in different buffer systems with a concentration of 1.0 mg/mL compound based on the previously determined content. HPLC-UV was performed after 2 h of gentle agitation from the supernatant, which was obtained by 20 min of centrifugation at 4000 rpm. […] This analysis also served as t0 for the stability testing.
Instrument: Agilent 1100, column: X-Bridge C18 3.5 μm 2.1×150 mm (Waters), eluent: A: H20+500 ppm TFA/B: Methanol, flow: 0.55 ml/min, gradient: 0-5 min: 10-60% B; 5-15 min: 60-99% B; detection: 214 nm.

In data set [1] the target is T1, human GLP-1 receptor (hGLP-1 R) (Homo sapiens, UniProt P43220).
T1 construct: expressed in transfected cells; host or cells: HEK-293
Nature of the data set: cAMP response (HTRF) of HEK-293 cells stably expressing human GLP-1 receptor. It counts as cell-based. The following applies: HEK-293 cells expressing human GLP-1 receptor, cAMP formation. Put shortly:
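Detached HEK-293 cells stably expressing the receptor were suspended in HBSS with 20 mM HEPES, 0.1% BSA and 2 mM IBMX. Test compound was added for 30 min at room temperature, and cellular cAMP was quantified by HTRF.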
A general note: In TR-FRET formats the signal depends on donor and acceptor labels being close together.

≈ marks a conversion by molar mass, not a printed value. *1 amine or outer side, *2 acyl side, *3 side chain or, on linkers, in order; H or OH if unused. Where a SMILES comes first, the peptide text is derived from it. Side-chain parts run from the residue outwards. [ ]: non-standard residue; d: D form. The star is where a group is joined. γGlu = O=C(O)[C@H](CCC(=O)[*:2])N[*:1]; Palmitoyl = CCCCCCCCCCCCCCCC(=O)*

T1 sequence (P43220 24-463): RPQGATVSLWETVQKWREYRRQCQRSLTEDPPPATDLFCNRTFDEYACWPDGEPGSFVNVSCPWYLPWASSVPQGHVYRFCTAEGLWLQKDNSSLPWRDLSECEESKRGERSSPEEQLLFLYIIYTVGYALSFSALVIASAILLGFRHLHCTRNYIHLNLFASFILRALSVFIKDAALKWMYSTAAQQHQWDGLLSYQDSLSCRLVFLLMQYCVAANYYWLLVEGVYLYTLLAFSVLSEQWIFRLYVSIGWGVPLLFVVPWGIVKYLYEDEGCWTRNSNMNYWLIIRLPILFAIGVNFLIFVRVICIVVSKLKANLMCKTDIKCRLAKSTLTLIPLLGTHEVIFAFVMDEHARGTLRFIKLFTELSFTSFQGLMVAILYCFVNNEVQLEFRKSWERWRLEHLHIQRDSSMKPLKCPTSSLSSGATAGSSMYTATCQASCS

Regarding `CCCCCCCCCCCCCCCC(=O)N[C@@H](CCC(=O)NCCCC[C@H](NC(=O)[C@H](CO)NC(=O)[C@@H]1CCCN1C(=O)[C@@H]1CCCN1C(=O)[C@@H]1CCCN1C(=O)[C@H](C)NC(=O)CNC(=O)[C@H](CO)NC(=O)[C@H](CO)NC(=O)[C@@H]1CCCN1C(=O)CNC(=O)CNC(=O)[C@H](C)NC(=O)[C@H](CCCCN)NC(=O)[C@H](CC(C)C)NC(=O)[C@H](Cc1c[nH]c2ccccc12)NC(=O)[C@H](CCC(=O)O)NC(=O)[C@@H](NC(=O)[C@H](Cc1ccccc1)NC(=O)[C@H](CC(=O)O)NC(=O)[C@H](CCC(N)=O)NC(=O)[C@H](C)NC(=O)[C@H](CCCNC(=N)N)NC(=O)[C@H](CCCNC(=N)N)NC(=O)[C@H](CO)NC(=O)[C@H](CC(=O)O)NC(=O)[C@H](CCSC)NC(=O)[C@H](CCC(N)=O)NC(=O)[C@H](CCCCN)NC(=O)[C@H](CO)NC(=O)[C@H](CC(C)C)NC(=O)[C@H](CC(=O)O)NC(=O)[C@H](CO)NC(=O)[C@@H](NC(=O)[C@H](Cc1ccccc1)NC(=O)[C@@H](NC(=O)CNC(=O)[C@H](CCC(N)=O)NC(=O)[C@@H](CO)NC(=O)[C@@H](N)Cc1c[nH]cn1)[C@@H](C)O)[C@@H](C)O)[C@@H](C)CC)C(N)=O)C(=O)O` [(60)] (H-H[dS]QGTFTSDLSKQMDSRRAQDFIEWLKAGGPSSGAPPPSK([γGlu-Palmitoyl])-NH2), the solubility at 2 h in the data set “physchem” (pH 4.5) and in “physchem” (pH 7.4) was > 1000 µg/mL each time.

`CCCCCCCCCCCCCCCC(=O)N[C@@H](CCC(=O)NCCCC[C@H](NC(=O)[C@H](CO)NC(=O)[C@@H]1CCCN1C(=O)[C@@H]1CCCN1C(=O)[C@@H]1CCCN1C(=O)[C@H](C)NC(=O)CNC(=O)[C@H](CO)NC(=O)[C@H](CO)NC(=O)[C@@H]1CCCN1C(=O)CNC(=O)CNC(=O)[C@H](C)NC(=O)[C@H](CCCCN)NC(=O)[C@H](CC(C)C)NC(=O)[C@H](Cc1c[nH]c2ccccc12)NC(=O)[C@H](CCC(=O)O)NC(=O)[C@@H](NC(=O)[C@H](Cc1ccccc1)NC(=O)[C@H](CC(=O)O)NC(=O)[C@H](CCC(N)=O)NC(=O)[C@H](C)NC(=O)[C@H](CCCNC(=N)N)NC(=O)[C@H](CCCNC(=N)N)NC(=O)[C@H](CO)NC(=O)[C@H](CCC(=O)O)NC(=O)[C@H](CCSC)NC(=O)[C@H](CCC(N)=O)NC(=O)[C@H](CCCCN)NC(=O)[C@H](CO)NC(=O)[C@H](CC(C)C)NC(=O)[C@H](CC(=O)O)NC(=O)[C@H](CO)NC(=O)[C@@H](NC(=O)[C@H](Cc1ccccc1)NC(=O)[C@@H](NC(=O)CNC(=O)[C@H](CCC(N)=O)NC(=O)[C@@H](CO)NC(=O)[C@@H](N)Cc1c[nH]cn1)[C@@H](C)O)[C@@H](C)O)[C@@H](C)CC)C(N)=O)C(=O)O` [(63)] (H-H[dS]QGTFTSDLSKQMESRRAQDFIEWLKAGGPSSGAPPPSK([γGlu-Palmitoyl])-NH2): the solubility at 2 h in the data set “physchem” (pH 4.5) and in the data set “physchem” (pH 7.4) was > 1000 µg/mL throughout.

On to `CCCCCCCCCCCCCCCC(=O)N[C@@H](CCC(=O)NCCCC[C@H](NC(=O)[C@H](CO)NC(=O)[C@@H]1CCCN1C(=O)[C@@H]1CCCN1C(=O)[C@@H]1CCCN1C(=O)[C@H](C)NC(=O)CNC(=O)[C@H](CO)NC(=O)[C@H](CO)NC(=O)[C@@H]1CCCN1C(=O)CNC(=O)CNC(=O)[C@H](CC(N)=O)NC(=O)[C@H](CCCCN)NC(=O)[C@H](CC(C)C)NC(=O)[C@H](Cc1c[nH]c2ccccc12)NC(=O)[C@H](CCC(=O)O)NC(=O)[C@@H](NC(=O)[C@H](Cc1ccccc1)NC(=O)[C@H](CC(=O)O)NC(=O)[C@H](CCCCN)NC(=O)[C@H](C)NC(=O)[C@H](CCCNC(=N)N)NC(=O)[C@H](CCCNC(=N)N)NC(=O)[C@H](CCC(=O)O)NC(=O)[C@H](CC(=O)O)NC(=O)[C@H](CCSC)NC(=O)[C@H](CCC(N)=O)NC(=O)[C@H](CCCCN)NC(=O)[C@H](CO)NC(=O)[C@H](CC(C)C)NC(=O)[C@H](CC(=O)O)NC(=O)[C@H](CO)NC(=O)[C@@H](NC(=O)[C@H](Cc1ccccc1)NC(=O)[C@@H](NC(=O)CNC(=O)[C@H](CCC(N)=O)NC(=O)[C@@H](CO)NC(=O)[C@@H](N)Cc1c[nH]cn1)[C@@H](C)O)[C@@H](C)O)[C@@H](C)CC)C(N)=O)C(=O)O` [(70)] (H-H[dS]QGTFTSDLSKQMDERRAKDFIEWLKNGGPSSGAPPPSK([γGlu-Palmitoyl])-NH2), for which the solubility at 2 h in the data set “physchem” (pH 4.5) and in the data set “physchem” (pH 7.4) was > 1000 µg/mL throughout.

With `CCCCCCCCCCCCCCCC(=O)N[C@@H](CCC(=O)NCCCC[C@H](NC(=O)[C@H](CO)NC(=O)[C@@H]1CCCN1C(=O)[C@@H]1CCCN1C(=O)[C@@H]1CCCN1C(=O)[C@H](C)NC(=O)CNC(=O)[C@H](CO)NC(=O)[C@H](CO)NC(=O)[C@@H]1CCCN1C(=O)CNC(=O)CNC(=O)[C@H](CCCNC(=N)N)NC(=O)[C@H](CCCCN)NC(=O)[C@H](CC(C)C)NC(=O)[C@H](Cc1c[nH]c2ccccc12)NC(=O)[C@H](CCC(=O)O)NC(=O)[C@@H](NC(=O)[C@H](Cc1ccccc1)NC(=O)[C@H](CC(=O)O)NC(=O)[C@H](CCC(N)=O)NC(=O)[C@H](C)NC(=O)[C@H](CCCNC(=N)N)NC(=O)[C@H](CCCNC(=N)N)NC(=O)[C@H](CO)NC(=O)[C@H](CCC(=O)O)NC(=O)[C@H](CCSC)NC(=O)[C@H](CCC(N)=O)NC(=O)[C@H](CCCCN)NC(=O)[C@H](CO)NC(=O)[C@H](CC(C)C)NC(=O)[C@H](CC(=O)O)NC(=O)[C@H](CO)NC(=O)[C@@H](NC(=O)[C@H](Cc1ccccc1)NC(=O)[C@@H](NC(=O)CNC(=O)[C@H](CCC(N)=O)NC(=O)[C@@H](CO)NC(=O)[C@@H](N)Cc1c[nH]cn1)[C@@H](C)O)[C@@H](C)O)[C@@H](C)CC)C(N)=O)C(=O)O` [(75)] (H-H[dS]QGTFTSDLSKQMESRRAQDFIEWLKRGGPSSGAPPPSK([γGlu-Palmitoyl])-NH2), in data set [1], it took 4.6 pM to reach a half-maximal effect (EC50). Besides, the solubility at 2 h in “physchem” (pH 4.5) and in the data set “physchem” (pH 7.4) was > 1000 µg/mL each time.

As to `CCCCCCCCCCCCCCCC(=O)N[C@@H](CCC(=O)NCCCC[C@H](NC(=O)[C@H](CO)NC(=O)[C@@H]1CCCN1C(=O)[C@@H]1CCCN1C(=O)[C@@H]1CCCN1C(=O)[C@H](C)NC(=O)CNC(=O)[C@H](CO)NC(=O)[C@H](CO)NC(=O)[C@@H]1CCCN1C(=O)CNC(=O)[C@@H](C)NC(=O)[C@H](CCCNC(=N)N)NC(=O)[C@H](CCCCN)NC(=O)[C@H](CC(C)C)NC(=O)[C@H](Cc1c[nH]c2ccccc12)NC(=O)[C@H](CCC(=O)O)NC(=O)[C@@H](NC(=O)[C@H](Cc1ccccc1)NC(=O)[C@H](CC(=O)O)NC(=O)[C@H](CCC(N)=O)NC(=O)[C@H](C)NC(=O)[C@H](CCCNC(=N)N)NC(=O)[C@H](CCCNC(=N)N)NC(=O)[C@H](CO)NC(=O)[C@H](CCC(=O)O)NC(=O)[C@H](CCSC)NC(=O)[C@H](CCC(N)=O)NC(=O)[C@H](CCCCN)NC(=O)[C@H](CO)NC(=O)[C@H](CC(C)C)NC(=O)[C@H](CC(=O)O)NC(=O)[C@H](CO)NC(=O)[C@@H](NC(=O)[C@H](Cc1ccccc1)NC(=O)[C@@H](NC(=O)CNC(=O)[C@H](CCC(N)=O)NC(=O)[C@@H](CO)NC(=O)[C@@H](N)Cc1c[nH]cn1)[C@@H](C)O)[C@@H](C)O)[C@@H](C)CC)C(N)=O)C(=O)O` [(76)] (H-H[dS]QGTFTSDLSKQMESRRAQDFIEWLKR[dA]GPSSGAPPPSK([γGlu-Palmitoyl])-NH2), the solubility at 2 h in the data set “physchem” (pH 4.5) was 952 µg/mL (≈ 199 µM); in “physchem” (pH 7.4) it was > 1000 µg/mL.

With `CCCCCCCCCCCCCCCC(=O)N[C@@H](CCC(=O)NCCCC[C@H](NC(=O)[C@H](CO)NC(=O)[C@@H]1CCCN1C(=O)[C@@H]1CCCN1C(=O)[C@@H]1CCCN1C(=O)[C@H](C)NC(=O)CNC(=O)[C@H](CO)NC(=O)[C@H](CO)NC(=O)[C@@H]1CCCN1C(=O)CNC(=O)CNC(=O)[C@H](CCCCN)NC(=O)[C@H](CCCCN)NC(=O)[C@H](CC(C)C)NC(=O)[C@H](Cc1c[nH]c2ccccc12)NC(=O)[C@H](CCC(=O)O)NC(=O)[C@@H](NC(=O)[C@H](Cc1ccccc1)NC(=O)[C@H](CC(=O)O)NC(=O)[C@H](CCC(N)=O)NC(=O)[C@H](C)NC(=O)[C@H](CCCNC(=N)N)NC(=O)[C@H](CCCNC(=N)N)NC(=O)[C@H](CO)NC(=O)[C@H](CCC(=O)O)NC(=O)[C@H](CCSC)NC(=O)[C@H](CCC(N)=O)NC(=O)[C@H](CCCCN)NC(=O)[C@H](CO)NC(=O)[C@H](CC(C)C)NC(=O)[C@H](CC(=O)O)NC(=O)[C@H](CO)NC(=O)[C@@H](NC(=O)[C@H](Cc1ccccc1)NC(=O)[C@@H](NC(=O)CNC(=O)[C@H](CCC(N)=O)NC(=O)[C@@H](CO)NC(=O)[C@@H](N)Cc1c[nH]cn1)[C@@H](C)O)[C@@H](C)O)[C@@H](C)CC)C(N)=O)C(=O)O` [(77)] (H-H[dS]QGTFTSDLSKQMESRRAQDFIEWLKKGGPSSGAPPPSK([γGlu-Palmitoyl])-NH2), the solubility at 2 h in the data set “physchem” (pH 4.5) and in the data set “physchem” (pH 7.4) was > 1000 µg/mL each time.
